Measurements: patent publication US20090247499A1, “SULFONYLATED PIPERAZINES AS CANNABINOID-1 RECEPTOR MODULATORS” (priority 2006, published 2009)
Like-named read-outs stand apart in the source and are kept apart here.

Assays:
[1] = molecular target: T1, recombinant human CB1 receptor (Homo sapiens, UniProt P21554); experiment: Cannabinoid Receptor-1 (CB1) Binding Assay
T1 construct: expressed in transfected cells; CB1-CHO cell suspension for cAMP
Method: Binding affinity determination is based on recombinant human CB1 receptor expressed in Chinese Hamster Ovary (CHO) cells (Felder et al, Mol. Pharmacol. 48: 443-450, 1995). Total assay volume is 250 μl (240 μl CB1 receptor membrane solution plus 5 μl test compound solution plus 5 μl [3H]CP-55940 solution). Final concentration of [3H]CP-55940 is 0.6 nM. Binding buffer contains 50 mM Tris-HCl, pH7.4, 2.5 mM EDTA, 5 mM MgCl2, 0.5 mg/mL fatty acid free bovine serum albumin and protease inhibitors (Cat#P8340, from Sigma). To initiate the binding reaction, 5 μl of radioligand solution is added, the mixture is incubated with gentle shaking on a shaker for 1.5 h at 30° C. The binding is terminated by using 96-well harvester and filtering through GF/C filter presoaked in 0.05% polyethylenimine. The bound radiolabel is quantitated using scintillation counter. Apparent binding affinities for various compounds are calculated from IC50 values (DeBlasi et al., Trends Pharmacol Sci 10: 227-229, 1989).

[2] = molecular target: T2, recombinant human CB1 receptor expressed in CHO cells (Homo sapiens, UniProt P21554); experiment: Cannabinoid Receptor-1 (CB1) Functional Activity Assay (cAMP); type: cell-based
T2 construct: expressed in transfected cells; CB1-CHO cell suspension for cAMP
T2 sequence (P21554 whole entry): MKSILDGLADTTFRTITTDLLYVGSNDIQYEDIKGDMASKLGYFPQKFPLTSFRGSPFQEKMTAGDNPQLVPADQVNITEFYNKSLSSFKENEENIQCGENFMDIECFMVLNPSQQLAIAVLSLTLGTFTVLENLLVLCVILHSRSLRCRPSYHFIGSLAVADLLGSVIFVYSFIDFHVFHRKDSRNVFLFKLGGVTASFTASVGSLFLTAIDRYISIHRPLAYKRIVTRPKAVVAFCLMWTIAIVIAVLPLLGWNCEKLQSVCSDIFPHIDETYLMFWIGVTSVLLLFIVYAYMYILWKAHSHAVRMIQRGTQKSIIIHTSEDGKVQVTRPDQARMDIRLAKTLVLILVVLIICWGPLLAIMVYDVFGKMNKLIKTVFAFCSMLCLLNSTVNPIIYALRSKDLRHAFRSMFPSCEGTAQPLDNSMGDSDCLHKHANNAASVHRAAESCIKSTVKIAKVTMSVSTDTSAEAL
Method: The functional activation of CB1 receptor is based on recombinant human CBI receptor expressed in CHO cells (Felder et al, Mol. Pharmacol. 48: 443-450, 1995). To determine the agonist activity or inverse agonist activity of any test compound, 50 ul of CB1-CHO cell suspension are mixed with test compound and 70 ul assay buffer containing 0.34 mM 3-isobutyl-1-methylxanthine and 5.1 uM of forskolin in 96-well plates. The assay buffer is comprised of Earle's Balanced Salt Solution supplemented with 5 mM MgCl2, 1 mM glutamine, 10 mM HEPES, and 1 mg/mL bovine serum albumin. The mixture is incubated at room temperature for 30 minutes, and terminated by adding 30 μl/well of 0.5M HCl. The total intracellular cAMP level is quantitated using the New England Nuclear Flashplate and cAMP radioimmunoassay kit.

[3] = recombinant human CB1 receptor in CHO cells, [3H]CP-55940 0.6 nM, read-out: CB1 binding IC50
[4] = CB1-CHO cells, forskolin, intracellular cAMP, read-out: CB1 function activity EC50

T1 sequence (P21554 whole entry): as above

| Structure (SMILES) | IC50 [1, 3] [nM] | EC50 [2, 4] [nM] | IC50 [1] [nM] | EC50 [2] [nM] |
| --- | --- | --- | --- | --- |
| O=C(c1ccccc1)N1CCN(S(=O)(=O)c2cc(C(F)(F)F)cc(C(F)(F)F)c2)CC1 [Example 89, 4-benzoyl-1-((3,5-bis(trifluoromethyl)phenyl)sulfonyl)piperazine] | 3220 | 37.7 |  |  |
| O=C(N1CCCCC1)N1CCN(S(=O)(=O)c2cccc3ccccc23)CC1 [Example 83, 4-(piperidin-1-yl-carbonyl)-1-(1-naphthylsulfonyl) piperazine] | 3790 | 10.5 |  |  |
| O=C(C1CCCCC1)N1C2CCC1CN(S(=O)(=O)c1cccc3ccccc13)C2 [Example 114, 8-(cyclohexylcarbonyl)-3-(1-naphthylsulfonyl)-3,8-diazabicyclo[3.2.1]octane] |  |  | 3190 | 15.1 |
| O=C(C1CCCCC1)N1CCN(S(=O)(=O)c2cc(Cl)cc(Cl)c2)CC1 [Example 101, 4-(cyclohexyl-carbonyl)-1-((3,5-dichlorophenyl)sulfonyl)piperazine] | 422 | 0.41 |  |  |
| O=C(Cc1ccc(C(F)(F)F)cc1)N1CCN(S(=O)(=O)c2cc(C3CC3)cc(C(F)(F)F)c2)CC1 [Example 123, 4-(4-trifluoromethylphenyl-acetyl)-1-((3-cyclopropyl-5-trifluoromethyl-phenyl)sulfonyl)piperazine] |  | 1.09 | 1.24 |  |
| O=C(CC1CC1)N1CCN(S(=O)(=O)c2cccc3ccccc23)CC1 [Example 17, 4-(cyclopropyl-acetyl)-1-(1-naphthylsulfonyl)piperazine] | 303 | 1.1 |  |  |
| O=C(C1CCCCC1)N1CCN(S(=O)(=O)c2cc(C(F)(F)F)cc(C(F)(F)F)c2)CC1 [Example 132, 4-(cyclohexyl-carbonyl)-1-((3,5-bis(trifluoromethyl)phenyl)sulfonyl)piperazine] | 260 |  |  | 1.07 |
| COC(=O)c1cc(C(F)(F)F)cc(S(=O)(=O)N2CCN(C(=O)Cc3ccc(C(F)(F)F)cc3)CC2)c1 [Example 125, 4-(4-trifluoromethylphenyl-acetyl)-1-((3-methoxycarbonyl-5-trifluoromethyl-phenyl)sulfonyl)piperazine] | 6.07 | 0.7 |  |  |
